Data taken from patent US10219516B2, “Molecules having pesticidal utility, and intermediates, compositions, and processes, related thereto” (priority 2015, dated 2019).
Where two headings read alike, the source gives them in different places.

What was measured:
Format in all cases: in vivo
[1] = tested on: Beet Armyworm (Spodoptera exigua, LAPHEG); test: Bioassay on Beet Armyworm (BAW), 128-well diet tray assay
Summary of the method: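 Second instar larvae were exposed to diet treated at 50 μg/cm^2 for five to seven days at 25° C.; mortality was averaged over eight wells.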

[2] = tested on: Cabbage Looper (Trichoplusia ni, TRIPNI); test: Bioassay on Cabbage Looper (CL), 128-well diet tray assay; details: Trichoplusia ni
Summary of the method: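 Second-instar larvae, one to five per well, placed on artificial diet treated with 50 μg/cm^2 test molecule in 90:10 acetone-water, dried before infestation. Held 5–7 days at 25° C, 14:10 light-dark; percent mortality averaged over eight wells.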

[3] = tested on: Yellow Fever Mosquito (Aedes aegypti, AEDSAE); test: Bioassay on Yellow Fever Mosquito (YFM), 96-well plate larval assay; details: for YFM (Biological Results, rating): Species YFM (Yellow Fever Mosquito); for YFM rating: Yellow Fever Mosquito, 96-well plate larval assay
Summary of the method: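 Compound stocks at 4000 ppm in DMSO were diluted with 90:10 water/acetone, and 15 μL aliquots were dispensed into six replicate plates. About 1-day-old larvae in liver-powder water were added per well. Plates were covered and held at room temperature for 3 days before each well was scored for mortality.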

[4] = Species BAW (Beet Armyworm), read-out: BAW (Biological Results, rating)
[5] = Species CL (Cabbage Looper), read-out: CL (Biological Results, rating)
[6] = Beet Armyworm, 128-well diet tray assay, read-out: BAW rating
[7] = Cabbage Looper, 128-well diet tray assay, read-out: CL rating

Row | Structure (SMILES) | pest or weed control at 50 µg/cm2 [1, 4] [%] | pest or weed control at 50 µg/cm2 [2, 5] [%] | YFM (Biological Results, rating) [3] | pest or weed control at 50 µg/cm2 [1, 6] [%] | pest or weed control at 50 µg/cm2 [2, 7] [%] | YFM rating [3]
1 | O=C(Nc1ccc(F)cc1F)c1cc(NC(=O)[C@H]2[C@H](c3ccc(Br)c(F)c3)C2(Cl)Cl)ccc1Cl (relative stereo) [F364, 5-(trans)-(3-(4-Bromo-3-fluorophenyl)-2,2-dichlorocyclopropane-1-carboxamido)-2-chloro-N-(2,4-difluorophenyl)benzamide] | 50 to 100 | 50 to 100 | A (80-100) |  |  | 
2 | O=C(Nc1ccc(F)cc1F)c1cc(NC(=O)[C@H]2[C@H](c3ccc(C(F)(F)F)c(Br)c3)C2(Cl)Cl)ccc1Cl (relative stereo) [F365, 5-(trans)-(3-(3-Bromo-4-(trifluoromethyl)phenyl)-2,2-dichlorocyclopropane-1-carboxamido)-2-chloro-N-(2,4-difluorophenyl)benzamide] | 50 to 100 | 50 to 100 | A (80-100) |  |  | 
3 | O=C(Nc1ccc(F)cc1F)c1cc(NC(=O)[C@H]2[C@H](c3ccc(Br)c(C(F)(F)F)c3)C2(Cl)Cl)ccc1Cl (relative stereo) [F366, 5-(trans)-(3-(4-Bromo-3-(trifluoromethyl)phenyl)-2,2-dichlorocyclopropane-1-carboxamido)-2-chloro-N-(2,4-difluorophenyl)benzamide] | 50 to 100 | 50 to 100 | A (80-100) |  |  | 
4 | O=C(Nc1ccc(F)cc1F)c1cc(NC(=O)[C@H]2[C@H](c3ccc(C(F)(F)F)c(Cl)c3)C2(Cl)Cl)ccc1Cl (relative stereo) [F367, 2-Chloro-5-(trans)-(2,2-dichloro-3-(3-chloro-4-(trifluoromethyl)phenyl)cyclopropane-1-carboxamido)-N-(2,4-difluorophenyl)benzamide] | 50 to 100 | 50 to 100 | A (80-100) |  |  | 
5 | O=C(Nc1ccc(F)cc1F)c1cc(NC(=O)[C@H]2[C@H](c3ccc(Cl)c(C(F)(F)F)c3)C2(Cl)Cl)ccc1Cl (relative stereo) [F374, 2-Chloro-5-(trans)-(2,2-dichloro-3-(4-chloro-3-(trifluoromethyl)phenyl)cyclopropane-1-carboxamido)-N-(2,4-difluorophenyl)benzamide] |  |  |  | 50 to 100 | 50 to 100 | A (80-100)
6 | O=C(Nc1ccc(F)cc1F)c1cc(NC(=O)[C@H]2[C@H](c3ccc(F)c(Br)c3)C2(Cl)Cl)ccc1Cl (relative stereo) [F375, 5-(trans)-(3-(3-Bromo-4-fluorophenyl)-2,2-dichlorocyclopropane-1-carboxamido)-2-chloro-N-(2,4-difluorophenyl)benzamide] |  |  |  | 50 to 100 | 50 to 100 | A (80-100)
7 | O=C(Nc1ccc(F)cc1F)c1cc(NC(=O)[C@H]2[C@H](c3ccc(F)c(C(F)(F)F)c3)C2(Cl)Cl)ccc1Cl (relative stereo) [F376, 2-Chloro-5-(trans)-(2,2-dichloro-3-(4-fluoro-3-(trifluoromethyl)phenyl)cyclopropane-1-carboxamido)-N-(2,4-difluorophenyl)benzamide] |  |  |  | 50 to 100 | 50 to 100 | A (80-100)
8 | C=C(F)c1ccc([C@H]2[C@H](C(=O)Nc3ccc(Cl)c(C(=O)Nc4ccc(F)cc4)c3)C2(Cl)Cl)cc1Cl (relative stereo) [F382, 2-Chloro-5-(trans-2,2-dichloro-3-(3-chloro-4-(1-fluorovinyl)phenyl)cyclopropane-1-carboxamido)-N-(4-fluorophenyl)benzamide] |  |  |  | 50 to 100 | 50 to 100 | A (80-100)
9 | C=C(F)c1ccc([C@H]2[C@H](C(=O)Nc3ccc(Cl)c(C(=O)Nc4ccc(F)cc4F)c3)C2(Cl)Cl)cc1Cl (relative stereo) [F383, 2-Chloro-5-(trans-2,2-dichloro-3-(3-chloro-4-(1-fluorovinyl)phenyl)cyclopropane-1-carboxamido)-N-(2,4-difluorophenyl)benzamide] |  |  |  | 50 to 100 | 50 to 100 | A (80-100)
10 | C=C(F)c1cc([C@H]2[C@H](C(=O)Nc3ccc(Cl)c(C(=O)Nc4ccc(F)cc4)c3)C2(Cl)Cl)ccc1Cl (relative stereo) [F384, 2-Chloro-5-(trans-2,2-dichloro-3-(4-chloro-3-(1-fluorovinyl)phenyl)cyclopropane-1-carboxamido)-N-(4-fluorophenyl)benzamide] |  |  |  | 50 to 100 | 50 to 100 | A (80-100)
11 | C=C(F)c1cc([C@H]2[C@H](C(=O)Nc3ccc(Cl)c(C(=O)Nc4ccc(F)cc4F)c3)C2(Cl)Cl)ccc1Cl (relative stereo) [F385, 2-Chloro-5-(trans-2,2-dichloro-3-(4-chloro-3-(1-fluorovinyl)phenyl)cyclopropane-1-carboxamido)-N-(2,4-difluorophenyl)benzamide] |  |  |  | 50 to 100 | 50 to 100 | A (80-100)
12 | C=C(F)c1cc(Cl)cc([C@H]2[C@H](C(=O)Nc3ccc(Cl)c(C(=O)Nc4ccc(F)cc4F)c3)C2(Cl)Cl)c1 (relative stereo) [F386, 2-Chloro-5-(trans-2,2-dichloro-3-(3-chloro-5-(1-fluorovinyl)phenyl)cyclopropane-1-carboxamido)-N-(2,4-difluorophenyl)benzamide] |  |  |  | 50 to 100 | 50 to 100 | A (80-100)
13 | C=C(F)c1cc(Cl)cc([C@H]2[C@H](C(=O)Nc3ccc(Cl)c(C(=O)Nc4ccc(F)cc4C#N)c3)C2(Cl)Cl)c1 (relative stereo) [F387, 2-Chloro-N-(2-cyano-4-fluorophenyl)-5-(trans-2,2-dichloro-3-(3-chloro-5-(1-fluorovinyl)phenyl)cyclopropane-1-carboxamido)benzamide] |  |  |  | 50 to 100 | 50 to 100 | A (80-100)
14 | O=C(Nc1ncc(F)c(I)c1F)c1cc(NC(=O)[C@H]2[C@H](c3cc(Cl)cc(Cl)c3)C2(Cl)Cl)ccc1Cl (relative stereo) [F388, 2-Chloro-5-(trans-2,2-dichloro-3-(3,5-dichlorophenyl)cyclopropane-1-carboxamido)-N-(3,5-difluoro-4-iodopyridin-2-yl)benzamide] |  |  |  | 50 to 100 | 50 to 100 | A (80-100)
15 | C=Cc1ccc([C@H]2[C@H](C(=O)Nc3ccc(Cl)c(C(=O)Nc4ccc(F)cc4F)c3)C2(Cl)Cl)cc1F (relative stereo) [F389, 2-Chloro-5-(trans-2,2-dichloro-3-(3-fluoro-4-vinylphenyl)cyclopropane-1-carboxamido)-N-(2,4-difluorophenyl)benzamide] |  |  |  | 50 to 100 | 50 to 100 | A (80-100)
16 | C=Cc1cc([C@H]2[C@H](C(=O)Nc3ccc(Cl)c(C(=O)Nc4ccc(F)cc4F)c3)C2(Cl)Cl)ccc1F (relative stereo) [F390, 2-Chloro-5-(trans-2,2-dichloro-3-(4-fluoro-3-vinylphenyl)cyclopropane-1-carboxamido)-N-(2,4-difluorophenyl)benzamide] |  |  |  | 50 to 100 | 50 to 100 | A (80-100)
17 | C=Cc1ccc([C@H]2[C@H](C(=O)Nc3ccc(Cl)c(C(=O)Nc4ccc(F)cc4F)c3)C2(Cl)Cl)cc1C(F)(F)F (relative stereo) [F391, 2-Chloro-5-(trans-2,2-dichloro-3-(3-(trifluoromethyl)-4-vinylphenyl)cyclopropane-1-carboxamido)-N-(2,4-difluorophenyl)benzamide] |  |  |  | 50 to 100 | 50 to 100 | A (80-100)
18 | C=Cc1cc([C@H]2[C@H](C(=O)Nc3ccc(Cl)c(C(=O)Nc4ccc(F)cc4F)c3)C2(Cl)Cl)ccc1C(F)(F)F (relative stereo) [F392, 2-Chloro-5-(trans-2,2-dichloro-3-(4-(trifluoromethyl)-3-vinylphenyl)cyclopropane-1-carboxamido)-N-(2,4-difluorophenyl)benzamide] |  |  |  | 50 to 100 | 50 to 100 | A (80-100)
19 | C=Cc1c(F)cnc(NC(=O)c2cc(NC(=O)[C@H]3[C@H](c4cc(Cl)cc(Cl)c4)C3(Cl)Cl)ccc2Cl)c1F (relative stereo) [F393, trans-2-chloro-5-(2,2-dichloro-3-(3,5-dichlorophenyl)cyclopropane-1-carboxamido)-N-(3,5-difluoro-4-vinylpyridin-2-yl)benzamide] |  |  |  | 50 to 100 | 50 to 100 | A (80-100)
20 | C=C(F)c1c(F)cnc(NC(=O)c2cc(NC(=O)[C@H]3[C@H](c4cc(Cl)cc(Cl)c4)C3(Cl)Cl)ccc2Cl)c1F (relative stereo) [F394, 2-Chloro-5-(trans-2,2-dichloro-3-(3,5-dichlorophenyl)cyclopropane-1-carboxamido)-N-(3,5-difluoro-4-(1-fluorovinyl)pyridin-2-yl)benzamide] |  |  |  | 50 to 100 | 50 to 100 | A (80-100)
